In paper PMC9947105, “Structural remodelling of the carbon–phosphorus lyase machinery by a dual ABC ATPase” (Nature Communications, 2023):

Tests used:
[1] = molecular target: T1, Phn(GHIJK)2 closed, Zn2+ site at the PhnI-PhnJ interface (His site) (Escherichia coli, UniProt P16687+P16688); experiment: cryo-EM structure, […] Å; format: binding; details: co-purified ligand modelled from density, identity not confirmed by mass spectrometry, absent in open state
T1 construct: class without PhnL density from the purified wild-type Phn(GHIJKL)2 sample (pRBS01, TEV-treated PhnK Strep-tag); with Alpha-D-ribose 1-methylphosphonate 5-triphosphate synthase subunit PhnH

[2] = molecular target: T2, Phn(GHIJKL)2, PhnK nucleotide-binding site (Escherichia coli, UniProt P16678); experiment: cryo-EM structure, […] Å; details: ATP turnover (1.5 mM ATP, 6 mM MgCl2, 37 °C, 15 s); post-hydrolysis state, ADP + Pi in PhnK site
T2 construct: hetero-dodecamer, 327 kDa, expressed in E. coli Lemo21 from pRBS01 (phn genes from pBW120); C-terminal TEV-2xStrep-tag on PhnK, TEV-treated for wild-type cryo-EM sample; with Alpha-D-ribose 1-methylphosphonate 5-triphosphate synthase subunit PhnL; Alpha-D-ribose 1-methylphosphonate 5-phosphate C-P lyase; Alpha-D-ribose 1-methylphosphonate 5-triphosphate synthase subunit PhnI; Alpha-D-ribose 1-methylphosphonate 5-triphosphate synthase subunit PhnH

[3] = molecular target: T3, Phn(GHIJKL)2, PhnK nucleotide-binding site (Escherichia coli, UniProt P16678, E171Q); experiment: cryo-EM structure, […] Å; details: 5 mM AMPPNP, 5 mM MgCl2, pH 7.5; both PhnK sites, closed dimer; PhnL empty
T3 construct: hetero-dodecamer, 327 kDa, expressed in E. coli Lemo21 from pRBS01 (phn genes from pBW120); C-terminal TEV-2xStrep-tag on PhnK, TEV-treated for wild-type cryo-EM sample; with Alpha-D-ribose 1-methylphosphonate 5-triphosphate synthase subunit PhnL; Alpha-D-ribose 1-methylphosphonate 5-phosphate C-P lyase; Alpha-D-ribose 1-methylphosphonate 5-triphosphate synthase subunit PhnI; Alpha-D-ribose 1-methylphosphonate 5-triphosphate synthase subunit PhnH

[4] = molecular target: T4, Phn(GHIJKL)2 (ATPase assay) (Escherichia coli, UniProt P16678+P16679); details: 1 or 5 mM ATP, Mg2+, pH 7.5, 37 °C (coupled assay); hydrolysis by PhnK and PhnL
T4 construct: gene phnK

[5] = molecular target: Phn(GHIJKL)2, PhnL nucleotide-binding site (Escherichia coli, UniProt P16679); details: ATP turnover (1.5 mM ATP, 6 mM MgCl2, 37 °C, 15 s); both PhnL sites, dimer open; PhnK holds ADP + Pi
[6] = molecular target: T5, Phn(GHIJKL)2 (ATPase assay) (Escherichia coli, UniProt P16678+P16679, P16678:E171Q); details: 1 or 5 mM ATP, Mg2+, pH 7.5, 37 °C (coupled assay); hydrolysis by PhnK and PhnL
T5 construct: gene phnK

[7] = molecular target: the molecule itself; experiment: cryo-EM structure; Phn(GHIJKL)2-PhnK E171Q co-expressed from the phnGHIJKLMNOP plasmid and purified as a complex on StrepTrap with AMPPNP; 2.5 mg/mL; 25 mM HEPES/KOH pH 7.5, 125 mM KCl, 5 mM MgCl2, 5 mM BME
[8] = molecular target: the molecule itself; experiment: cryo-EM structure; wild type Phn(GHIJKL)2 purified as a complex with ATP and EDTA, then 1.5 mM ATP and 6 mM MgCl2, 15 s at 37 °C (ATP turnover); 3D classes: Phn(GHIJKL)2 with ADP + Pi, Phn(GHIJK)2 closed, Phn(GHIJK)2 open

O=P(O)(O)OC[C@H]1O[C@@H]2OP(=O)(O)O[C@@H]2[C@@H]1O [5-phospho-α-D-ribose-1,2-cyclic-phosphate]
cryo-EM structure, 2.0 Å [1]: we were able to model the ligand as 5-phospho-α-D-ribose-1,2-cyclic-phosphate

Nc1ncnc2c1ncn2[C@@H]1O[C@H](COP(=O)(O)OP(=O)(O)O)[C@@H](O)[C@H]1O [ADP]
cryo-EM structure, 1.9 Å [2]: contains ADP and Pi and consequently represents a true ATP post-hydrolysis state

Nc1ncnc2c1ncn2[C@@H]1O[C@H](COP(=O)(O)OP(=O)(O)NP(=O)(O)O)[C@@H](O)[C@H]1O [AMPPNP]
cryo-EM structure, 2.1 Å [3]: clear density for AMPPNP allowed for modelling of a nucleotide in both active site pockets

Nc1ncnc2c1ncn2[C@@H]1O[C@H](COP(=O)(O)OP(=O)(O)OP(=O)(O)O)[C@@H](O)[C@H]1O [ATP]
ion exchange of nucleotides; coupled pyruvate kinase / lactate dehydrogenase ATP [4]: clear ATPase activity for the wildtype PhnGHIJKL complex | cryo-EM structure, 1.9 Å [5]: binding of ATP to both nucleotide binding sites in PhnL | ion exchange of nucleotides; coupled pyruvate kinase / lactate dehydrogenase ATP [6]: we observed a significantly reduced ATPase activity

B1: PhnK E171Q with a C-terminal TEV-2xStrep-tag (natural protein, Escherichia coli)
chain: MNQPLLSVNNLTHLYAPGKGFSDVSFDLWPGEVLGIVGESGSGKTTLLKSISARLTPQQGEIHYENRSLYAMSEADRRRLLRTEWGVVHQHPLDGLRRQVSAGGNIGERLMATGARHYGDIRATAQKWLEEVEIPANRIDDLPTTFSGGMQQRLQIARNLVTHPKLVFMDQPTGGLDVSVQARLLDLLRGLVVELNLAVVIVTHDLGVARLLADRLLVMKQGQVVESGLTDRVLDDPHHPYTQLLVSSVLQN
notes: PhnK, non-transporter ABC protein of the Escherichia coli phn operon, with the Walker B mutation E171Q; also called Phn(GHIJKL)2-PhnK E171Q; not shown: 2xStrep-tag (after a TEV site), C-terminal, kept
binding result [7]: binds

B2: PhnK wild type, TEV-2xStrep-tag removed with TEV protease (natural protein, Escherichia coli)
chain: MNQPLLSVNNLTHLYAPGKGFSDVSFDLWPGEVLGIVGESGSGKTTLLKSISARLTPQQGEIHYENRSLYAMSEADRRRLLRTEWGVVHQHPLDGLRRQVSAGGNIGERLMATGARHYGDIRATAQKWLEEVEIPANRIDDLPTTFSGGMQQRLQIARNLVTHPKLVFMDEPTGGLDVSVQARLLDLLRGLVVELNLAVVIVTHDLGVARLLADRLLVMKQGQVVESGLTDRVLDDPHHPYTQLLVSSVLQN
notes: PhnK, non-transporter ABC protein of the Escherichia coli phn operon; Residues of the TEV site probably stay at the C-terminus after cleavage; also called wild type PhnK; not shown: 2xStrep-tag (after a TEV site), C-terminal, cleaved
binding result [8]: binds

B3: PhnI (natural protein, Escherichia coli)
chain: MYVAVKGGEKAIDAAHALQESRRRGDTDLPELSVAQIEQQLNLAVDRVMTEGGIADRELAALALKQASGDNVEAIFLLRAYRTTLAKLAVSEPLDTTGMRLERRISAVYKDIPGGQLLGPTYDYTHRLLDFTLLANGEAPTLTTADSEQQPSPHVFSLLARQGLAKFEEDSGAQPDDITRTPPVYPCSRSSRLQQLMRGDEGYLLALAYSTQRGYGRNHPFAGEIRSGYIDVSIVPEELGFAVNVGELLMTECEMVNGFIDPPGEPPHFTRGYGLVFGMSERKAMAMALVDRALQAPEYGEHATGPAQDEEFVLAHADNVEAAGFVSHLKLPHYVDFQAELELLKRLQQEQNHG
notes: PhnI, subunit of carbon-phosphorus lyase, Escherichia coli phn operon; untagged, encoded on the expression plasmid; Whole phn genes amplified from pBW120; also called PhnI subunit of the C–P lyase core complex
binding result [8]: binds

B4: PhnL (natural protein, Escherichia coli)
chain: MINVQNVSKTFILHQQNGVRLPVLNRASLTVNAGECVVLHGHSGSGKSTLLRSLYANYLPDEGQIQIKHGDEWVDLVTAPARKVVEIRKTTVGWVSQFLRVIPRISALEVVMQPLLDTGVPREACAAKAARLLTRLNVPERLWHLAPSTFSGGEQQRVNIARGFIVDYPILLLDEPTASLDAKNSAAVVELIREAKTRGAAIVGIFHDEAVRNDVADRLHPMGASS
notes: PhnL, non-transporter ABC protein of the Escherichia coli phn operon; untagged; β hairpin extension residues 7-14; Identified in the complex by mass spectrometry and by the EM density; also called PhnL subunit; ABC module PhnL; source: E. coli Lemo21 (pRBS01 or pRBS01-PhnK E171Q), co-expressed, purified as part of the complex through Strep-tagged PhnK
binding result [8]: binds
